The source of these data is patent US20220046923A1, “HERBICIDAL CINNOLINIUM COMPOUNDS” (SYNGENTA CROP PROTECTION AG, priority 2018, published 2022).

What all share (assay): Post-emergence efficacy, glasshouse spray test
Format in all cases: in vivo

One assay deals with Setaria faberi (SETFA). As to conditions: evaluated after 13 days; for pest or weed control at 1000 g/ha / pest or weed control at 500 g/ha: Setaria faberi, post-emergence, 312 h, read-out: Control of weed species SETFA after post-emergence application (100=total damage to plant; 0=no damage to plant); for pest or weed control at 1000 g/ha: application rate 1000 g/Ha. In a few lines: (§1)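 Seeds were sown in pots of standard soil and grown for 14 days under controlled glasshouse conditions. Seedlings were sprayed with the compound emulsified via acetone and IF50 and diluted in sodium lauryl ether sulphate (0.25% or 1%) with 1% ammonium sulphate. They were kept at 24/16 °C with 14 h light and 65% humidity and rated for damage on a 0–100 scale after 13 days.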

Assay [1] concerns Amaranthus palmeri (AMAPA). The following applies: evaluated after 13 days; for pest or weed control at 1000 g/ha / pest or weed control at 500 g/ha: Amaranthus palmeri, post-emergence, 312 h, read-out: Control of weed species AMAPA after post-emergence application (100=total damage to plant; 0=no damage to plant); for pest or weed control at 1000 g/ha: application rate 1000 g/Ha. In outline:
as §1

Assay [2] relates to Chenopodium album (CHEAL). The following applies: evaluated after 13 days; for pest or weed control at 1000 g/ha / pest or weed control at 500 g/ha: Chenopodium album, post-emergence, 312 h, read-out: Control of weed species CHEAL after post-emergence application (100=total damage to plant; 0=no damage to plant); for pest or weed control at 1000 g/ha: application rate 1000 g/Ha. In a few lines:
as §1

Another assay deals with Eleusine indica (ELEIN). As to conditions: evaluated after 13 days; for pest or weed control at 1000 g/ha / pest or weed control at 500 g/ha: Eleusine indica, post-emergence, 312 h, read-out: Control of weed species ELEIN after post-emergence application (100=total damage to plant; 0=no damage to plant); for pest or weed control at 1000 g/ha: application rate 1000 g/Ha. In a few lines: as §1

For assay [3], the system named is Echinochloa crus-galli (ECHCG). The following applies: evaluated after 13 days; for pest or weed control at 1000 g/ha / pest or weed control at 500 g/ha: Echinochloa crus-galli, post-emergence, 312 h, read-out: Control of weed species ECHCG after post-emergence application (100=total damage to plant; 0=no damage to plant); for pest or weed control at 1000 g/ha: application rate 1000 g/Ha. In a few lines: as §1

The subject of assay [4] is Euphorbia heterophylla (EPHHL). The following applies: evaluated after 13 days; for pest or weed control at 1000 g/ha / pest or weed control at 500 g/ha: Euphorbia heterophylla, post-emergence, 312 h, read-out: Control of weed species EPHHL after post-emergence application (100=total damage to plant; 0=no damage to plant); for pest or weed control at 1000 g/ha: application rate 1000 g/Ha. In outline: as §1

Assay [5] concerns Digitaria sanguinalis (DIGSA). The following applies: evaluated after 13 days; for pest or weed control at 1000 g/ha / pest or weed control at 500 g/ha: Digitaria sanguinalis, post-emergence, 312 h, read-out: Control of weed species DIGSA after post-emergence application (100=total damage to plant; 0=no damage to plant); for pest or weed control at 1000 g/ha: application rate 1000 g/Ha. In outline:
as §1

A further assay has as its system Lolium perenne (LOLPE). As to conditions: evaluated after 13 days; for pest or weed control at 1000 g/ha / pest or weed control at 500 g/ha: Lolium perenne, post-emergence, 312 h, read-out: Control of weed species LOLPE after post-emergence application (100=total damage to plant; 0=no damage to plant); for pest or weed control at 1000 g/ha: application rate 1000 g/Ha. In outline: as §1

In assay [6] the test system is Ipomoea hederacea (IPOHE). The following applies: evaluated after 13 days; for pest or weed control at 1000 g/ha / pest or weed control at 500 g/ha: Ipomoea hederacea, post-emergence, 312 h, read-out: Control of weed species IPOHE after post-emergence application (100=total damage to plant; 0=no damage to plant); for pest or weed control at 1000 g/ha: application rate 1000 g/Ha. In outline: as §1

Consider `C[C@H](C[n+]1ccc2ccccc2n1)NS(=O)(=O)[O-]` [Compound A46], for which the pest or weed control at 1000 g/ha in the assay on Setaria faberi (SETFA) stood at 60%; in assay [1], 100%; in assay [2], 70%; in the assay on Eleusine indica (ELEIN), 90%; in [3], 30%; in assay [4], 100%. Besides, the results for the pest or weed control at 1000 g/ha (in assay [5]; with Lolium perenne (LOLPE); in [6]) were 70%, 40% and 70%, respectively.
For `COC(=O)c1ccc2cc[n+](CCS(=O)(=O)[O-])nc2c1` [Compound A108], the pest or weed control at 500 g/ha in the assay on Setaria faberi (SETFA) (application rate 500 g/Ha) turned out to be 10%; in [1] (application rate 500 g/Ha) it was 20%; in assay [2] (application rate 500 g/Ha) it was 40%; in the assay with Eleusine indica (ELEIN) (application rate 500 g/Ha), 30%; in [3] (application rate 500 g/Ha) it was 20%; in assay [4] (application rate 500 g/Ha), 50%. Further, the pest or weed control at 500 g/ha in [5] (application rate 500 g/Ha) is 70%; with Lolium perenne (LOLPE) (application rate 500 g/Ha), 10%; in [6] (application rate 500 g/Ha) it was 10%.
Regarding `O=S(=O)(O)OCC[n+]1nc2ccccc2cc1Cl` [Compound A56], the pest or weed control at 1000 g/ha turned out to be 20% in the assay on Setaria faberi (SETFA); 0% in [1]; 0% in assay [2]; 30% with Eleusine indica (ELEIN); 10% in assay [3]; 50% in assay [4]. Also, the pest or weed control at 1000 g/ha is 20% in assay [5], 0% in the assay with Lolium perenne (LOLPE) and 0% in [6].
For the compound `CCOP(=O)(CC[n+]1ccc2ccccc2n1)OCC.[Br-]` [Compound A99], the “Control of weed species SETFA after post-emergence application (100=total damage to plant; 0=no damage to plant)” value in the assay with Setaria faberi (SETFA) (application rate 500 g/Ha) stood at 50. For the same compound, in assay [1] (application rate 500 g/Ha), the “Control of weed species AMAPA after post-emergence application (100=total damage to plant; 0=no damage to plant)” value is given as 10. In addition, the “Control of weed species CHEAL after post-emergence application (100=total damage to plant; 0=no damage to plant)” value in assay [2] (application rate 500 g/Ha) was 20. For the same compound, the “Control of weed species ELEIN after post-emergence application (100=total damage to plant; 0=no damage to plant)” value with Eleusine indica (ELEIN) (application rate 500 g/Ha) came out at 30. Besides, in assay [3] (application rate 500 g/Ha), the “Control of weed species ECHCG after post-emergence application (100=total damage to plant; 0=no damage to plant)” value is listed as 40. For the same compound, the “Control of weed species EPHHL after post-emergence application (100=total damage to plant; 0=no damage to plant)” value in assay [4] (application rate 500 g/Ha) was 40. The “Control of weed species DIGSA after post-emergence application (100=total damage to plant; 0=no damage to plant)” value in [5] (application rate 500 g/Ha) came to 50. For the same compound, the “Control of weed species LOLPE after post-emergence application (100=total damage to plant; 0=no damage to plant)” value with Lolium perenne (LOLPE) (application rate 500 g/Ha) was found to be 20. Moreover, the “Control of weed species IPOHE after post-emergence application (100=total damage to plant; 0=no damage to plant)” value in [6] (application rate 500 g/Ha) is given as 10.
With `O=S(=O)([O-])CC(O)C[n+]1ccc2ccccc2n1` (stereo not drawn) [Compound A28], the pest or weed control at 1000 g/ha stood at 50% in the assay on Setaria faberi (SETFA); 90% in assay [1]; 70% in assay [2]; 80% in the assay on Eleusine indica (ELEIN); 40% in assay [3]; 80% in assay [4]. Besides, the pest or weed control at 1000 g/ha (in [5]; with Lolium perenne (LOLPE); in assay [6]) was 60% throughout.
Regarding `O=S(=O)([O-])CCC[n+]1ccc2ccccc2n1` [Compound A67], the pest or weed control at 1000 g/ha in the assay with Setaria faberi (SETFA) is 80%; in [1], 100%; in assay [2], 90%; with Eleusine indica (ELEIN) it was 80%; in [3], 60%; in assay [4], 70%. Also, the pest or weed control at 1000 g/ha (in assay [5]; in the assay with Lolium perenne (LOLPE); in assay [6]) was 80% each time.
For the compound `O=C([O-])C[C@H](O)C[n+]1ccc2ccccc2n1` [Compound A74, (3S)-4-cinnolin-2-ium-2-yl-3-hydroxy-butanoate], the pest or weed control at 1000 g/ha is 0% in the assay with Setaria faberi (SETFA); 0% in assay [1]; 0% in assay [2]; 0% with Eleusine indica (ELEIN); 0% in assay [3]; 10% in assay [4]. In addition, the figures for the pest or weed control at 1000 g/ha (in assay [5]; with Lolium perenne (LOLPE); in [6]) were 0%, 0% and 10%, respectively.
`CCOP(=O)(O)CC[n+]1ccc2ccccc2n1` [Compound A103]: the pest or weed control at 500 g/ha turned out to be 60% with Setaria faberi (SETFA) (application rate 500 g/Ha); 20% in [1] (application rate 500 g/Ha); 0% in [2] (application rate 500 g/Ha); 30% in the assay on Eleusine indica (ELEIN) (application rate 500 g/Ha); 30% in assay [3] (application rate 500 g/Ha); 40% in assay [4] (application rate 500 g/Ha). Moreover, the pest or weed control at 500 g/ha in assay [5] (application rate 500 g/Ha) is 60%; in the assay on Lolium perenne (LOLPE) (application rate 500 g/Ha) it was 20%; in assay [6] (application rate 500 g/Ha), 20%.
On to `O=P(O)(O)C[n+]1ccc2ccccc2n1` [Compound A73, cinnolin-2-ium-2-ylmethyl(hydroxy)phosphinate chloride], for which the pest or weed control at 1000 g/ha in the assay with Setaria faberi (SETFA) is 0%; in assay [1] it was 10%; in assay [2], 0%; with Eleusine indica (ELEIN) it was 10%; in assay [3] it was 10%; in [4], 10%. Moreover, the pest or weed control at 1000 g/ha was found to be 10% in assay [5], 10% with Lolium perenne (LOLPE) and 30% in [6].
With `N[C@H](CC[n+]1ccc2ccccc2n1)C(=O)O` [Compound A12, [(1R)-1-carboxy-3-cinnolin-2-ium-2-yl-propyl]ammonium 2,2,2-trifluoroacetate], the pest or weed control at 1000 g/ha was 50% in the assay on Setaria faberi (SETFA); 80% in assay [1]; 70% in assay [2]; 90% with Eleusine indica (ELEIN); 40% in assay [3]; 50% in assay [4]. Also, the pest or weed control at 1000 g/ha came out at 80% in [5], 40% in the assay on Lolium perenne (LOLPE) and 60% in assay [6].
For the compound `Cc1c[n+](CCS(=O)(=O)[O-])nc2ccccc12` [Compound A11], the pest or weed control at 1000 g/ha in the assay with Setaria faberi (SETFA) was found to be 70%; in assay [1] it was 100%; in assay [2], 100%; in the assay on Eleusine indica (ELEIN), 80%; in assay [3], 60%; in assay [4], 80%. The pest or weed control at 1000 g/ha in assay [5] worked out at 40%; with Lolium perenne (LOLPE), 0%; in assay [6] it was 80%.
